Converted amounts (≈) assume the structure as drawn. Read-outs that look alike come from different tables or passages of the source. Where a SMILES comes first, the peptide text is derived from it. Bridges are numbered along the chain shown (N, C = ends). [ ]: non-standard residue; d: D form.
Columns and labels:
[1] = test system: Escherichia coli (ATCC 25922)
Procedure: All peptide variants were synthesized and purified as described previously.[5],[7] They were tested in broth dilution in the presence and absence of 1 × 10^9 human RBCs per mL, 20% of the concentration in human blood, against Escherichia coli, K. pneumoniae, and Staphylococcus aureus. […] The toxicity of the variants was tested by measuring hemolysis as well as cytotoxicity against human WI-38 fibroblast cells.
(§1) Subcultures, prepared by inoculating 25 mL of fresh tryptic soy broth (TSB) with 200 μL of an overnight culture, were grown to log phase (OD600 = 0.3–0.6), after which cell counts were determined by measuring the OD600 (1.0 = 5 × 10^8 CFU/mL for E. coli, 4 × 10^8 CFU/mL for K. pneumoniae, 4 × 10^8 CFU/mL for P. aeruginosa, 1.5 × 10^8 CFU/mL for S. aureus). Bacterial cells were diluted to appropriate concentrations in TSB. We used the following clinical bacterial isolates of Klebsiella pneumoniae in this study: Strains KP6, KP46, NDM-1, KP396, and KP398 have been previously described.[43] ST58 strains C2, C3, and I2 are also described.[41] […] MRSA, […] S. aureus strain, is SAP400, a USA400 strain of community-acquired MRSA. […] The second independent set of K. pneumoniae isolates are previously described.[20],[21]
(§2) The antibiotics were serially diluted by a factor of 2:3 horizontally across 96-well plates from Corning, 25 μL per well. One column was reserved for controls. For the assays performed in the presence of RBC, type O+ human RBCs at 0 or 2.5 × 10^9 cells/mL were added in 50 μL aliquots to all wells. Following a 30-min incubation, 50 μL of TSB, inoculated with 5 × 10^5 CFU/mL, was added to all wells, and plates were incubated overnight at 37 °C. Following overnight incubation at 37 °C, the OD600 was measured (values of less than 0.1 were considered sterilized). To assess bacterial growth in the assays with RBC, the OD600 was measured after a second-day inoculation with 10 μL of solution from the original plate added to 100 μL of sterile TSB followed by overnight incubation.
(§3) Experiments were repeated four to eight times independently, with pairs of replicate measurements on each 96-well plate. After overnight growth, optical densities were measured at 660 nm and the sterilized wells were identified by having O.D. < 0.08. Nonsterilized wells were nearly opaque with OD > 0.6. For each measurement, we recorded the largest dilution that sterilized the bacteria. Statistics are done on dilution numbers, rather than calculated concentrations, because only the former have normal distributions.

[2] = test system: human RBCs; type: cell-based
Procedure: Human O+ erythrocytes were obtained from Interstate Blood Bank, Inc. Red blood cells were subjected to four or more cycles of centrifugation at 1000g with resuspension in fresh PBS. Following the final wash step, the supernatant was clear and colorless. RBC concentration was determined using a standard hemocytometer.
Peptide was serially diluted in PBS starting at a concentration of 100 μM. The final volume of peptide in each well was 50 μL. To each well, 50 μL of RBCs in PBS at 2 × 10^8 cells/mL was added. As a positive lysis control, 1% Triton was used. The mixtures were incubated at 37 °C for 1 h, after which they were centrifuged at 1000g for 5 min. After centrifugation, 10 μL of supernatant was transferred to 90 μL of DI H2O in a fresh 96-well plate. The absorbance of released hemoglobin at 410 nm was recorded, and the fractional hemolysis was calculated based on the 100 and 0% lysis controls. At least three independent experiments were performed. Results shown are averages.

[3] = test system: WI-38 human fibroblast cells; assay: in vitro; type: cell-based
Procedure: The day before cytotoxicity experiments, the 10,000 cells/well were plated in a 96-well tissue-culture plate. […] To perform the cytotoxicity assay, media was removed from the wells and replaced with peptide solutions. […] The plate was read for SYTOX fluorescence every 5 min for an hour with an excitation wavelength of 504 nm and an emission wavelength of 523 nm. Percent cytotoxicity was calculated at 60 min using the 100 and 0% lysis controls. At least three independent experiments were averaged.

[4] = test system: Acinetobacter baumannii (PDR) Tulane isolate
[5] = test system: Pseudomonas aeruginosa clinical isolates; assay: microbe, parasite or virus in culture; conditions: for MIC: Pseudomonas aeruginosa
Procedure: as §1, §2, §3

[6] = test system: MRSA SAP400, a USA400 strain; assay: microbe, parasite or virus in culture
Procedure: as §1, §2, §3

[7] = test system: K. pneumoniae clinical isolates; assay: microbe, parasite or virus in culture; conditions: for MIC: Klebsiella pneumoniae
Procedure: as §1
The antibiotics were serially diluted by a factor of 2:3 horizontally across 96-well plates from Corning, 25 μL per well. One column was reserved for controls. For the assays performed in the presence of RBC, type O+ human RBCs at 0 or 2.5 × 10^9 cells/mL were added in 50 μL aliquots to all wells. […] To assess bacterial growth in the assays with RBC, the OD600 was measured after a second-day inoculation with 10 μL of solution from the original plate added to 100 μL of sterile TSB followed by overnight incubation.
as §3

[8] = test system: Acinetobacter baumannii (PDR) Tulane isolate; assay: microbe, parasite or virus in culture; conditions: read-out: MIC, AB (PDR)Tulane
[9] = test system: 14 clinical isolates of resistant bacterial strains; assay: Broth dilution, summary over the 14 clinical isolates of the first set; type: cell-based; conditions: statement for all 14 clinical isolates of the first set; read-out: MIC, all isolates (completely resistant)
Procedure: In Figure 4B, we plot the fraction of isolates sterilized as functions of antibiotic concentration.
as §1, §2

[10] = test system: K. pneumoniae clinical isolates
Procedure: as §1, §2, §3

[11] = broth dilution, at least three independent measurements, SE about 40%, highest concentration 150 μM

## CC(C)C[C@@H]1NC(=O)[C@H](CCCNC(=N)N)NC(=O)[C@H](CCCNC(=N)N)NC(=O)[C@H](C)NC(=O)[C@H](Cc2c[nH]c3ccccc23)NC(=O)[C@H](CCCNC(=N)N)NC(=O)[C@H](CCCNC(=N)N)NC(=O)[C@H](CCCNC(=N)N)NC(=O)[C@H](CCCNC(=N)N)NC(=O)[C@H](Cc2ccccc2)NC(=O)[C@H](C)NC(=O)[C@H](Cc2ccccc2)NC(=O)[C@H](C)NC1=O [L-CONGA-OH cycl.] (cyclo(RRWARRLAFAFRR))
[1]
  MIC in Broth Dilution, E. coli: 13 µM (≈ 22.7 µg/mL)
[2]
  Hemolysis at 100 μM (fractional hemolysis): 0.07

## CC(C)C[C@H](NC(=O)[C@H](CCCNC(=N)N)NC(=O)[C@H](CCCNC(=N)N)NC(=O)[C@H](C)NC(=O)[C@H](Cc1c[nH]c2ccccc12)NC(=O)[C@H](CCCNC(=N)N)NC(=O)[C@H](N)CCCNC(=N)N)C(=O)N[C@@H](C)C(=O)N[C@@H](Cc1ccccc1)C(=O)N[C@@H](C)C(=O)N[C@@H](Cc1ccccc1)C(=O)N[C@@H](CCCNC(=N)N)C(=O)N[C@H](CCCNC(=N)N)C(N)=O [L-CONGA- (R1,R13)] (H-[dR]RWARRLAFAFR[dR]-NH2; N-terminus and C-terminus assumed)
[1]
  MIC in Broth Dilution, E. coli: 26 µM (≈ 45.8 µg/mL)
[3]
  EC50: 134 µM
[2]
  Hemolysis at 100 μM (fractional hemolysis): 0.01

## gentamycin
[4]; [11]
  MIC, AB (PDR)Tulane: > 150 µM
[5]; [11]
  MIC, PA(mucoid): 5.5 µM
  MIC, PA(non-mucoid): 8.3 µM
[6]; [11]
  MIC, MRSA USA400: > 150 µM
[7]; [11]
  MIC, KP 6: > 150 µM
  MIC, KP 46: 1.6 µM
  MIC, KP 398: 1.9 µM
  MIC, KP 2146NDM-1: > 150 µM
  MIC, KP (CRE): 5.2 µM
  MIC, KP ATCC 33495: 1.9 µM
  MIC, KP ST258 C2: > 150 µM
  MIC, KP ST258 C3: > 150 µM
  MIC, KP ST258 I2: 8.3 µM
  MIC, KP ST396: 2.0 µM

## CC(C)(O/N=C(\C(=O)N[C@@H]1C(=O)N2C(C(=O)[O-])=C(C[n+]3ccccc3)CS[C@H]12)c1csc(N)n1)C(=O)O [CAZ, ceftazidime]
[8]
  MIC: > 150 µM
[9]
  MIC: > 150 µM
[5]; read-out: MIC, PA(mucoid)
  MIC: 116 µM (≈ 63.4 µg/mL)
[5]; read-out: MIC, PA(non-mucoid)
  MIC: > 150 µM
[6]; Staphylococcus aureus, read-out: MIC, MRSA USA400
  MIC: > 150 µM
[7]; ATCC33495, read-out: MIC, KP ATCC 33495
  MIC: > 150 µM
[7]; read-out: MIC, KP 6
  MIC: > 150 µM
[7]; read-out: MIC, KP 46
  MIC: > 150 µM
[7]; read-out: MIC, KP 398
  MIC: 133 µM (≈ 72.7 µg/mL)
[7]; read-out: MIC, KP 2146NDM-1
  MIC: > 150 µM
[7]; read-out: MIC, KP (CRE)
  MIC: > 150 µM
[7]; read-out: MIC, KP ST258 C2
  MIC: > 150 µM
[7]; read-out: MIC, KP ST258 C3
  MIC: > 150 µM
[7]; read-out: MIC, KP ST258 I2
  MIC: > 150 µM
[7]; read-out: MIC, KP ST396
  MIC: > 150 µM

## CC(C)C[C@@H]1NC(=O)[C@H](CCCNC(=N)N)NC(=O)[C@H](CCCNC(=N)N)NC(=O)[C@H](C)NC(=O)[C@H](Cc2c[nH]c3ccccc23)NC(=O)[C@H](CCCNC(=N)N)NC(=O)[C@H](CCCNC(=N)N)NC(=O)CC[C@@H](C(N)=O)NC(=O)[C@H](CCCNC(=N)N)NC(=O)[C@H](CCCNC(=N)N)NC(=O)[C@H](Cc2ccccc2)NC(=O)[C@H](C)NC(=O)[C@H](Cc2ccccc2)NC(=O)[C@H](C)NC1=O [L-CONGA-E cycl.] (RRWARRLAFAFRRE-NH2; lactam N-14)
[1]
  MIC in Broth Dilution, E. coli: 23 µM (≈ 43.1 µg/mL)
[2]
  Hemolysis at 100 μM (fractional hemolysis): 0.03

## CC(C)C[C@@H](NC(=O)[C@@H](CCCNC(=N)N)NC(=O)[C@@H](CCCNC(=N)N)NC(=O)[C@@H](C)NC(=O)[C@@H](Cc1c[nH]c2ccccc12)NC(=O)[C@@H](CCCNC(=N)N)NC(=O)[C@H](N)CCCNC(=N)N)C(=O)N[C@H](C)C(=O)N[C@H](Cc1ccccc1)C(=O)N[C@H](C)C(=O)N[C@H](Cc1ccccc1)C(=O)N[C@H](CCCNC(=N)N)C(=O)N[C@H](CCCNC(=N)N)C(N)=O [D-CONGA] (H-[dR][dR][dW][dA][dR][dR][dL][dA][dF][dA][dF][dR][dR]-NH2)
[2]
  Hemolysis at 100 μM (fractional hemolysis): 0.06
[10]
  K. Pneumoniae Isolate MIC, 1000527: > 25 µM
  K. Pneumoniae Isolate MIC, 1002565: > 25 µM
  K. Pneumoniae Isolate MIC, 1100770: 7.3 µM
  K. Pneumoniae Isolate MIC, 1100975: 14 µM
  K. Pneumoniae Isolate MIC, ATCC 43816: 5.4 µM
  K. Pneumoniae Isolate MIC, ATCC 700721: 5.4 µM
  K. Pneumoniae Isolate MIC, K6: 2.7 µM
  K. Pneumoniae Isolate MIC, K 6.1: 14 µM
  K. Pneumoniae Isolate MIC, K 6.2: 14 µM
  K. Pneumoniae Isolate MIC, KP 80: 14 µM
  K. Pneumoniae Isolate MIC, KP NIH 1: > 25 µM
  K. Pneumoniae Isolate MIC, KP NIH 10: > 25 µM
  K. Pneumoniae Isolate MIC, KP NIH 24: > 25 µM
  K. Pneumoniae Isolate MIC, KP NIH 27: > 25 µM
  K. Pneumoniae Isolate MIC, KP NIH 29: 14 µM
  K. Pneumoniae Isolate MIC, KP NIH 30: 7.3 µM
  K. Pneumoniae Isolate MIC, KP NIH 31: 7.3 µM
  K. Pneumoniae Isolate MIC, KP NIH 32: > 25 µM
  K. Pneumoniae Isolate MIC, KP NIH 33: 3.6 µM
[4]; PDR) Tulane isolate
  MIC, AB (PDR)Tulane: 2.4 µM (≈ 4.23 µg/mL)
[5]; clinical isolates
  MIC, PA(mucoid): 4.4 µM (≈ 7.75 µg/mL)
  MIC, PA(non-mucoid): 1.3 µM (≈ 2.29 µg/mL)
[6]; USA400
  MIC, MRSA USA400: 2.6 µM (≈ 4.58 µg/mL)
[7]; clinical isolates
  MIC, KP 6: 4.2 µM (≈ 7.4 µg/mL)
  MIC, KP 46: 4.4 µM (≈ 7.75 µg/mL)
  MIC, KP 398: 32 µM (≈ 56.4 µg/mL)
  MIC, KP 2146NDM-1: 15 µM (≈ 26.4 µg/mL)
  MIC, KP (CRE): 23 µM (≈ 40.5 µg/mL)
  MIC, KP ATCC 33495: 5.0 µM (≈ 8.81 µg/mL)
  MIC, KP ST258 C2: 64 µM (≈ 113 µg/mL)
  MIC, KP ST258 C3: 92 µM (≈ 162 µg/mL)
  MIC, KP ST258 I2: 3.2 µM (≈ 5.64 µg/mL)
  MIC, KP ST396: 2.0 µM (≈ 3.52 µg/mL)

Source: publication PMC10111420, “Optimization of Host Cell-Compatible, Antimicrobial Peptides Effective against Biofilms and Clinical Isolates of Drug-Resistant Bacteria” (ACS Infectious Diseases, 2023)
